Experimental data published in US3993650A, “Pyrrolo [3,4-d] pyrimidines” (Gruppo Lepetit S.p.A., priority 1975, dated 1976).

Test system: carragenin induced edema
Assay: carragenin induced edema test in rats (antiinflammatory activity)
Format: in vivo
Conditions: per os; for decrease of the induced edema: 100 mg/kg; for decrease of the induced edema over the controls: dose levels ranging from about 20 to about 50 mg/kg
Protocol: The compounds of the invention display excellent pharmacological properties; more particularly they are active essentially as antiinflammatories and as prostaglandin synthetase inhibitors. The antiinflammatory activity was investigated through the "carragenin induced edema" test in rats, which was performed following substantially the operative schema proposed by C.A. Winter et al. in Proc. Soc. Expl. Biol. Med., 111, 544, 1962.
It must be noted that a percent decrease of the edema of 30 is absolutely significative from the pharmacological standpoint. Moreover when administered per os at 100 mg/kg the compounds of examples 3 and 7 caused a decrease of the induced edema of about 55%. These very favorable antiinflammatory properties are coupled with a low toxicity, being the LD50 of the compounds of the invention always higher than 500 mg/kg p.o. in mice. Toxicities were determined substantially according to the method described by Lichtfield and Wilcoxon in Journ. Pharm. Expt. Ther., 96, 99 1949.

Row | Compound | decrease of the induced edema | decrease of the induced edema over the controls
1 | CCn1c(C)c2c(-c3ccccc3)nc(=O)n(CC)c2c1-c1ccccc1 [Example 7, 1,6-Diethyl-5-methyl-4,7-diphenyl-6H-pyrrolo[3,4-d]pyrimidine-2(1H)-one] | about 55% | at least 30%
2 | CCn1c(-c2ccccc2)c2[nH]c(=O)nc(-c3ccccc3)c2c1C [Example 6, 6-Ethyl-5-methyl-4,7-diphenyl-6H-pyrrolo[3,4-d]pyrimidine-2(1H)-one] | – | at least 30%
3 | CCn1c(-c2ccccc2)c2c(C)nc(-c3ccccc3)c-2[nH]c1=O.Cl [Example 3, 3-Ethyl-5-methyl-4,7-diphenyl-1H-pyrrolo[3,4-d]pyrimidine-2(3H)-one hydrochloride] | about 55% | at least 30%
